The results in this text go back to patent publication US20170000784A1, “Autophagy Inhibitors” (priority 2013, published 2017).

What is called pIC50 is the negative decadic logarithm of the IC50, by convention in mol/L.

What all share (format): cell-based
The test system of series [1] is lysosomes (LAMP1, LysoTracker Red) in U2OS cells. As to the kind of experiment: Lysosome analysis by fluorescent microscopy (LAMP1 / LysoTracker Red). The settings on record: 3 μM for 3 hours; for LysoTracker Red staining: LysoTracker Red for the final hour. How it is done: To determine deacidification of the lysosome, cells were incubated with LysoTracker Red, a dye that localizes to the lysosome based on the […] of the compartment. If the lysosome is no longer acidic, there is a loss in the amount of LysoTracker Red staining. Lysosomal inhibition was further determined by immunofluorescence of lysosome-associated membrane protein-1 (LAMP1). If the lysosome is inhibited, lysosomal turnover should decrease and an increase in the amount of LAMP1 staining would be apparent. U2OS cells were treated with Example 7 or Example 26 at 3 μM for 3 hours, supplementing LysoTracker Red for the final hour.
Using image analysis software, the mean intensities of both the LAMP1 and LysoTracker Red staining were measured and represent altered intensity level between treatments on intensity plots. Individual points were measured using a line scan on the image analysis software, which measures the intensity across the path of a line at any given point. Not only does the presence of LAMP1 positive membranes increases, but the intensity in LAMP1 staining also increases with Example 7 and Example 26 treatment. The inverse relationship in intensity holds true for LysoTracker Red staining.
U2OS cells were seeded at 5×10^4 cells per well in 5A McCoy's with 10% FBS on number 1.5 coverglass discs in 24-well tissue culture dishes. After 24 hours, cells were treated with 3 μM CQ, QN, VATG-027, or VATG-032 for three hours. An hour prior to fixation, media was supplemented with LysoTracker Red added at 100 nM (Invitrogen, L7528). Cells were washed with 1×PBS, fixed with 3.7% formaldehyde, permeabilized with 0.2% Triton-X 100, and blocked with 3% bovine serum albumin (BSA) in PBS. LAMP1 antibody (Santa Cruz, sc-18821) was added at 1:1000 for 16 hours at 4° C. followed by Alexa-Fluor-488-conjugated anti-mouse IgG (Invitrogen, A11008) 1:5000 for 1 hour at room temperature. Nuclei were stained with Hoechst 33342 (2 μg/mL). Coverglass discs were inverted onto a microscope slide using mounting gel. The microscope slides were imaged using a 60× oil-immersion objective on a Nikon Eclipse Ti fluorescent microscope. Intensity of the red and green channels were visualized using the intensity plot on the Nikon NIS Elements software (FIG. 13B). […] The RGB threshold of only the color […] indicating both LAMP1 and LysoTracker Red positivity was performed and data for analysis. The Mander's co-localization coefficient was produced from the Nikon NIS Elements software.
Next, the inventors sought to confirm the inhibition of lysosomal turnover induced by the compounds of the present invention, for example, those of Formula III, Formula III(a), Formula V, Formula V(a), Formula A, Formula A^1, Formula A^2, Formula A^3, or a pharmaceutically acceptable salt thereof, by evaluating the abundance of endogenous lysosomal protein, LAMP1. In addition, lysosome acidity was assessed by co-staining cells with LysoTracker Red, a dye that localizes to the lysosome based on the low pH. Cells were treated with 3 μM CQ, QN, Example 7, or Example 27 for 3 hours, with LysoTracker Red supplemented for the final hour. Following, cells were fixed and stained with endogenous LAMP1 antibodies and both LAMP1 and LysoTracker Red imaged. […] To quantify this phenotype, the co-localization of LAMP1 and LysoTracker Red was measured using image analysis software. […] In addition, Mander's colocalization coefficient (MCC) values were determined for each treatment (FIG. 13C). Not only does the presence of LAMP1-positive membranes increase, but the intensity of LAMP1 staining also increases with QN, Example 7, and Example 27 treatment (FIG. 13C).

Series [2] has as its system U2OS cells. The series is described as follows: Cell viability (IC50) screen, CellTiter Glo, U2OS. The conditions noted are these: for pIC50: U2OS cell viability, CellTiter Glo, 48 hours. How it is done: (§1) U2OS cells were seeded at 500 cells per well in 5A McCoy's with 10% FBS in 96-well clear bottom, black-walled tissue culture plates. All melanoma cell lines (A375, UACC-91, UACC-257, UACC-502, UACC-903, UACC-1308, UACC-1940, UACC-2534, and UACC-3291) were seeded at 5,000 cells per well in RPMI 1640 with 10% FBS in 96-well clear bottom, black-walled tissue culture plates. After 24 hour incubation, cells were treated with VATG compounds in triplicate with a 10-point half log dose response from […] for 24 and 48 hours. Medium was removed and 2× CellTiter Glo (Promega, G7571) reagent mixed 1:1 with Opti-MEM (Invitrogen, 31985062) was added at 100 μL per well and incubated at room temperature for 15 minutes while rocking. 75 μL per well was moved to a white-walled 96-well plate and luminescence quantified using the 96 LUM program on an EnVision plate reader (PerkinElmer) and exported for analysis. All triplicate data points were averaged and luminescent readings for each treatment were normalized to vehicle control for change in viability. Dose response curves were input into SigmaPlot for IC50 calculations (Systat Software Inc).
(In general: In ATP-based viability assays light output follows the ATP content of the culture.)

In series [3] the test system is UACC-91 melanoma cell line. The series is described as follows: Cell viability (IC50) screen, CellTiter Glo, UACC-91. The settings on record: Homo sapiens. How it is done:
as §1

The subject of series [4] is UACC-2534 melanoma cell line. As to the kind of experiment: Cell viability (IC50) screen, CellTiter Glo, UACC-2534. The settings on record: Homo sapiens. How it is done: as §1
For series [5], the system named is UACC-3291 melanoma cell line. As to the kind of experiment: Cell viability (IC50) screen, CellTiter Glo, UACC-3291. The settings on record: Homo sapiens. How it is done: as §1
In series [6] the test system is nine melanoma cell lines (A375, UACC-91, UACC-257, UACC-502, UACC-903, UACC-1308, UACC-1940, UACC-2534, UACC-3291). The series is described as follows: Cell viability (IC50) screen, panel of nine melanoma cell lines. The conditions noted are these: Homo sapiens, read-out: IC50 values, range over the melanoma cell lines. How it is done: as §1
Next, the sensitivity of each melanoma cell line to CQ, QN, Example 7, and Example 27 was assessed.

Series [7] deals with endogenous LC3 in U2OS cells. As to the kind of experiment: Western blot of endogenous LC3 (LC3-II accumulation) in U2OS. The settings on record: dose response, three hours, FIG. 11A. The procedure: For Western blotting, U2OS cells were seeded in 10 cm plates in 5A McCoy's with 10% FBS at 1×10^6 cells per plate. […] After treatment, cells were lysed [10 mM KPO4, 1 mM EDTA, 10 mM MgCl2, 5 mM EGTA, 50 mM bis-glycerophosphate, 0.5% NP40, 0.1% Brij35, 0.1% sodium deoxycholate, 1 mM NaVO4, 5 mM NaF, 2 mM DTT, and complete protease inhibitors (Sigma, P8340-5 mL)] and 50 μg of protein was resolved by SDS-PAGE. […] Proteins were detected with enhanced chemiluminescence or using the Odyssey machine and quantified (FIGS. 12, 15, 16, 7 and 11).
In general terms: Immunoblotting shows a protein as a band on a membrane.

Where [8] appears, read: U2OS IC50 relative to quinacrine.
Setting [9] is: UACC-91 cell viability, CellTiter Glo, read-out: IC50.
Where [10] appears, read: UACC-2534 cell viability, CellTiter Glo, read-out: IC50.
[11] abbreviates: UACC-3291 cell viability, CellTiter Glo, read-out: IC50.
Setting [12] is: cell viability, nine melanoma cell lines.

Each structure is given as a SMILES string. pIC50: −log10 of the molar value. Entries after “also recorded” stand apart in the source; their conditions may differ. Where two headings read alike, the source gives them in different places.

Regarding `COc1ccc2nc3cc(Cl)ccc3c(NCCCCN3CCN(C)CC3)c2c1` [Example 7, 6-Chloro-2-methoxy-N-(4-(4-methylpiperazin-1-yl)butyl)acridin-9-amine], the LAMP1 staining entry in series [1] is given as “substantial increases”. The “LysoTracker Red staining” value in series [1] is on record as “essentially ablated; also recorded: less intense; also recorded: essentially eliminated”. The “fold more cytotoxic than QN” value in series [2] (setting [8]) amounted to 3.5. For the same molecule, the pIC50 in series [2] (read-out: IC50) was 6.15; in series [3] (setting [9]), 6.30; in series [4] (setting [10]), 5.57; in series [5] (setting [11]) it was 6.10; in series [6] (setting [12]), 5.57 to 6.40. In series [7], the “accumulation of LC3-II” value is listed as “increased accumulation of LC3-II”.
For the molecule `CN1CCN(CCNc2c3c(nc4cc(Cl)ccc24)CCCC3)CC1` [Example 27, 6-Chloro-N-(2-(4-methylpiperazin-1-yl)ethyl)-1,2,3,4-tetrahydroacridin-9-amine], the LAMP1 staining entry in series [1] is given as “substantial increases”. Besides, in series [1], the “LysoTracker Red staining” value is on record as “essentially ablated; also recorded: essentially eliminated”. The “times less cytotoxic than QN” value in series [2] (setting [8]) was found to be 10. The pIC50 was 4.57 in series [2]; 4.65 in series [3]; 4.58 in series [4]; 4.60 in series [5]; 4.38 to 4.82 in series [6]. In series [7], the “accumulation of LC3-II” value is “increased accumulation of LC3-II”.
In the case of `CCN(CC)CCCC(C)Nc1c2ccc(Cl)cc2nc2ccc(OC)cc12` (stereo not shown) [Quinacrine, quinacrine, reference compound], the LAMP1 staining result in series [1] is “substantial increases”. Besides, the “LysoTracker Red staining” value in series [1] was “essentially eliminated”. Besides, the pIC50 was 5.60 in series [2] (Homo sapiens, U2OS, 48 h, read-out: IC50); 5.54 in series [3] (setting [9]); 5.66 in series [4] (setting [10]); 5.70 in series [5] (setting [11]); 5.41 to 5.72 in series [6] (setting [12]).
